target: human σ1 receptor (Homo sapiens, UniProt Q99720); assay: Human σ1 receptor radioligand assay ([3H](+)-pentazocine, transfected HEK-293 membranes); format: binding; parameters: μ and σ1 dual binding: key to the marks not given beside the values; settings: one class symbol for both Ki-σ1 (human σ1 receptor, A1) and Ki-μ (human μ-opioid receptor, A2)
Method: Human σ1 Receptor Radioligand Assay
To investigate binding properties of test compounds to human σ1 receptor, transfected HEK-293 membranes and [^3H](+)-pentazocine (Perkin Elmer, NET-1056), as the radioligand, were used. The assay was carried out with 7 μg of membrane suspension, 5 nM of [^3H](+)-pentazocine in either absence or presence of either buffer or 10 μM Haloperidol for total and non-specific binding, respectively. Binding buffer contained Tris-HCl 50 mM at pH 8. Plates were incubated at 37° C. for 120 minutes. After the incubation period, the reaction mix was then transferred to MultiScreen HTS, FC plates (Millipore), filtered and plates were washed 3 times with ice-cold 10 mM Tris-HCL (pH7.4). Filters were dried and counted at approximately 40% efficiency in a MicroBeta scintillation counter (Perkin-Elmer) using EcoScint liquid scintillation cocktail

Sequence of human σ1 receptor (Q99720 whole entry): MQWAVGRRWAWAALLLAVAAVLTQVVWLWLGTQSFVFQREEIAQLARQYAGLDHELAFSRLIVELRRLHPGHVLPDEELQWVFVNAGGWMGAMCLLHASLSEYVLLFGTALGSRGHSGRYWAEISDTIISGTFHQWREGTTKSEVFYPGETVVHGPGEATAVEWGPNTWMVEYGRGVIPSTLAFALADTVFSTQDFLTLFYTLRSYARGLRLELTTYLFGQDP

Row | Compound | μ and σ1 dual binding
1 | CC[C@]1(N2CCN(CCc3ccccc3)CC2)CCO[C@@H](C)C1 (stereo in doubt) [Example 46, 1-(4-ethyl-2-methyltetrahydro-2H-pyran-4-yl)-4-phenethylpiperazine] | ++
2 | CC[C@@]1(N2CCN(CCc3ccccc3)CC2)CCO[C@@H](C)C1 (stereo in doubt) [Example 47, 1-(4-ethyl-2-methyltetrahydro-2H-pyran-4-yl)-4-phenethylpiperazine] | ++
3 | CC[C@@]1(N2CCN(Cc3ccc(C#N)cc3)CC2)CCO[C@@H](C)C1 (stereo in doubt) [Example 186, 4-((4-(4-ethyl-2-methyltetrahydro-2H-pyran-4-yl)piperazin-1-yl)methyl)benzonitrile] | ++
4 | CC1(C)C[C@@](C(=O)c2ccccn2)(N2CCN(Cc3ccccc3)CC2)CCO1 [Example 2, (S)-(4-(4-benzylpiperazin-1-yl)-2,2-dimethyltetrahydro-2H-pyran-4-yl)(pyridin-2-yl)methanone] | ++
5 | O=C(c1ccccn1)C1(N2CCN(Cc3ccccc3)CC2)CCOCC1 [Example 8, (4-(4-benzylpiperazin-1-yl)tetrahydro-2H-pyran-4-yl)(pyridin-2-yl)methanone] | ++
6 | CC1(C)CC(C(=O)c2ccccc2)(N2CCN(Cc3ccccc3)CC2)CCO1 (stereo not shown) [Example 9, (4-(4-benzylpiperazin-1-yl)-2,2-dimethyltetrahydro-2H-pyran-4-yl)(phenyl)methanone] | ++
7 | CC1(C)CC(C(=O)c2cccnc2)(N2CCN(Cc3ccccc3)CC2)CCO1 (stereo not shown) [Example 10, (4-(4-benzylpiperazin-1-yl)-2,2-dimethyltetrahydro-2H-pyran-4-yl)(pyridin-3-yl)methanone] | ++
8 | CC(C)CN1CCN(C2(C(=O)c3ccccc3)CCOC(C)(C)C2)CC1 (stereo not shown) [Example 11, (4-(4-isobutylpiperazin-1-yl)-2,2-dimethyltetrahydro-2H-pyran-4-yl)(phenyl)methanone] | ++
9 | CC(C)OCCN1CCN(C2(C(=O)c3ccccc3)CCOC(C)(C)C2)CC1 (stereo not shown) [Example 13, (4-(4-(2-isopropoxyethyl)piperazin-1-yl)-2,2-dimethyltetrahydro-2H-pyran-4-yl)(phenyl)methanone] | ++

same assay, conditions: one class symbol for both Ki-σ1 (human σ1 receptor, A1) and Ki-μ (human μ-opioid receptor, A2); read-out: μ and σ1 dual binding

Row | Ki | Compound
10 | > 500 nM | CC[C@]1(N2CCN(Cc3ccc(C#N)cc3)CC2)CCO[C@@H](C)C1 (stereo in doubt) [Example 187, 4-((4-(4-ethyl-2-methyltetrahydro-2H-pyran-4-yl)piperazin-1-yl)methyl)benzonitrile]

same assay, conditions: μ and σ1 dual binding, one class symbol for both Ki-σ1 (human σ1 receptor, A1) and Ki-μ (human μ-opioid receptor, A2)

Row | Compound | Ki
11 | CC1(C)CC(C(=O)c2ccccn2)(N2CCN(Cc3ccccc3)CC2)CCO1 (stereo not shown) [Example 1, (4-(4-benzylpiperazin-1-yl)-2,2-dimethyltetrahydro-2H-pyran-4-yl)(pyridin-2-yl)methanone] | < 100 nM
12 | CC1(C)C[C@](C(=O)c2ccccn2)(N2CCN(Cc3ccccc3)CC2)CCO1 [Example 3, (R)-(4-(4-benzylpiperazin-1-yl)-2,2-dimethyltetrahydro-2H-pyran-4-yl)(pyridin-2-yl)methanone] | < 100 nM
13 | O=C(c1ccccc1)C1(N2CCN(Cc3ccccc3)CC2)CCOC2(CCCC2)C1 (stereo not shown) [Example 4, (9-(4-benzylpiperazin-1-yl)-6-oxaspiro[4.5]decan-9-yl)(phenyl)methanone] | < 100 nM
14 | O=C(c1cccc(C(F)(F)F)n1)C1(N2CCN(Cc3ccccc3)CC2)CCOC2(CCCC2)C1 (stereo not shown) [Example 6, (9-(4-benzylpiperazin-1-yl)-6-oxaspiro[4.5]decan-9-yl)(6-(trifluoromethyl)pyridin-2-yl)methanone] | < 100 nM
15 | CC(C)CN1CCN(C2(C(=O)c3ccccc3)CCOC3(CCCC3)C2)CC1 (stereo not shown) [Example 7, (9-(4-isobutylpiperazin-1-yl)-6-oxaspiro[4.5]decan-9-yl)(phenyl)methanone] | < 100 nM
16 | CC(C)CCN1CCN(C2(C(=O)c3ccccc3)CCOC(C)(C)C2)CC1 (stereo not shown) [Example 12, (4-(4-isopentylpiperazin-1-yl)-2,2-dimethyltetrahydro-2H-pyran-4-yl)(phenyl)methanone] | < 500 nM

Source: patent publication US10807970B2 (priority 2016, dated 2020)
